US20130245110A1, “USE FOR CANNABINOIDS” (priority 2008, published 2013)

Legend:
C57B1/Ks db/db mouse = experiment: Glycaemic control (blood glucose, oral glucose tolerance, 24 h glucose profile); format: in vivo; conditions: db/db mice
Description: Inflammation is also a feature of type II diabetic animals and man. […] However, as a result of the C57B1/Ks genetic background rather than the C57B1/6, the mice show loss of pancreatic function from around 6/7 weeks of age and by 10 weeks show frank diabetes.
• Daily: Food and water intake • Twice weekly: Body weight and glucose • Day 1: Weigh mice, dose compounds, provide measured amount of food, provide measured amount of water • Days 2, 5 and 8: Fed blood glucose concentration • Day 9: Oral glucose tolerance • Days 12 and 16: Fed blood glucose concentration • Day 19: 24 hr glycaemic assay • Days 22, 26 and 29: Fed blood glucose concentration • Day 33: 24 hr glycaemic assay • Day 38: Fed blood glucose concentration • Day 39: Body composition by Dexascan in anaesthetised mice • Day 41: Termination. Take blood samples for glucose, free fatty acids, triglycerides, cholesterol, insulin and HbA

[1] = system: dietary induced obese (DIO) mouse model; experiment: Growth (body weight, nose-anus length); format: in vivo; conditions: DIO mice; chronic dosing
Experimental: The following are a battery of tests used to elicit the effects of drugs on diseases including type I or II diabetes, obesity, dyslipidaemia, related metabolic disorders and cardiovascular disease. • a) Body weight: Bodyweights of all mice were measured twice weekly during the study. • b) Food intake: Food intake was measured by weight difference taking account of food wastage in the bottom of the cage. • c) Measurement of water consumption: Water intake was calculated daily for each animal, during the treatment period, by weight difference of the water bottle. • d) Oral Glucose Tolerance Test (OGTT): Glucose was dissolved in water (3 g/10 ml) and given to the mice orally at a rate of 3 g/kg. […] Samples were then analysed automatically using a SpectraMax-250 and SoftMax Pro software. • f) Plasma preparation: Blood was collected for the measurement of i) plasma insulin, ii) cholesterol, iii) free fatty acids or iv) triglyceride concentration. • i. Plasma insulin analysis: Plasma insulin was measured using 5 μl of plasma, compared with a mouse insulin standard using a 96-well micro-assay plate • ii. […] The samples were mixed and incubated for 5 minutes before reading at dual wavelengths of 500 and 660 nm. • iii. Plasma free fatty acids: 5 μl samples of plasma were measured into a 96-well assay plate, to which was added 0.2 ml of reagents NEFA C • iv. […]

PPARγ = target: T1, PPARγ (Homo sapiens, UniProt P37231); experiment: Transcriptional transactivation assay (luciferase reporter gene 3xPPRE TK luc); format: cell-based; conditions: any concentration tested
T1 construct: expressed in transfected cells
T1 sequence (P37231 1-505): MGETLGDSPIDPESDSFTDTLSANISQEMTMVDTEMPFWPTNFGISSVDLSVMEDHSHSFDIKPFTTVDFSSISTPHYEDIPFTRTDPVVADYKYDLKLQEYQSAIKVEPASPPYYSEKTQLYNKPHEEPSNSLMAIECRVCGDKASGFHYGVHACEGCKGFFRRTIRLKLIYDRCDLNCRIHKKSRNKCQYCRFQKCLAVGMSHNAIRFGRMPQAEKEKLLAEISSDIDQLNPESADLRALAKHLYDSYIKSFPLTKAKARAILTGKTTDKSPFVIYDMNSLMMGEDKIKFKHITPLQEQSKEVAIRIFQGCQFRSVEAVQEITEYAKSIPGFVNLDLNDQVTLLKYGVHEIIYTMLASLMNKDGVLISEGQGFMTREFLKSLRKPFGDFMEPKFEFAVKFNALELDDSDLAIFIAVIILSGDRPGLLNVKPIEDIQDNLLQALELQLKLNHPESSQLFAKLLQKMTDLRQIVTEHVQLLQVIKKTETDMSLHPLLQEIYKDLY
T1 sequence (P19793 1-462 partner): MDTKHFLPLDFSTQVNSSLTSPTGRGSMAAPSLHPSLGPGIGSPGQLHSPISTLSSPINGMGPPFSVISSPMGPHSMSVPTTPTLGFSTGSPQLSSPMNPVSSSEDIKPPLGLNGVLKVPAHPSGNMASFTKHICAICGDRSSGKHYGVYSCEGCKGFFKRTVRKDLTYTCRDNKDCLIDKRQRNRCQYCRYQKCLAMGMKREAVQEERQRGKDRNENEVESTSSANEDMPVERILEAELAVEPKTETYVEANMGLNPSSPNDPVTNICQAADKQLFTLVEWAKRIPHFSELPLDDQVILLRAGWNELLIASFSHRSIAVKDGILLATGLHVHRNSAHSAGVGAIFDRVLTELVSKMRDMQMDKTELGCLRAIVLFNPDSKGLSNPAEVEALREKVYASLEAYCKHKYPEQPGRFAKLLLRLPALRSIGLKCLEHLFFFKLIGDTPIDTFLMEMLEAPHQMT
Experimental: In vitro vascular studies were carried out in rat isolated aortae by wire myography. PPARγ activation was investigated using reporter gene assays, a PPARγ competition-binding assay and an adipogenesis assay.

Row | SMILES | Glycaemic control versus control (C57B1/Ks db/db mouse) | Effect on growth [1] | PPARγ transcriptional activity (PPARγ)
1 | C=C(C)[C@@H]1CCC(C)=C[C@H]1c1c(O)cc(CCCCC)cc1O [CBD, cannabidiol] | did not show significant differences in glycaemic control |  | 
2 | CCCc1cc(O)c2c(c1)OC(C)(C)[C@@H]1CCC(C)=C[C@@H]21 [THCV, tetrahydrocannabivarin] |  | without any effect on growth | no effect
